# According to ChEMBL document CHEMBL3352542, “Synthesis, biological evaluation and molecular modeling study of 2-(1,3,4-thiadiazolyl-thio and 4-methyl-thiazolyl-thio)-quinazolin-4-ones as a new class of DHFR inhibitors” (Bioorg Med Chem Lett, 2014):
# Key:
# Dihydrofolate reductase = molecular target: T1, Dihydrofolate reductase (Bos taurus, UniProt P00376); assay: Inhibition of bovine liver DHFR
# T1 sequence (P00376 whole entry): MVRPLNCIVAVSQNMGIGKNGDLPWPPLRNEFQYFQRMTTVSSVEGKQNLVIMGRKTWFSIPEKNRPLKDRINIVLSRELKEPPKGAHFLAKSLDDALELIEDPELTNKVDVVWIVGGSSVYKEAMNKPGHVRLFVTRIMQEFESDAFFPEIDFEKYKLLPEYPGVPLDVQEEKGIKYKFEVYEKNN
# Staphylococcus aureus = assay: Antimicrobial activity against Staphylococcus aureus assessed as inhibition zone at 200 ug/disk after 24 hrs by disc-diffusion method; assay type: functional; conditions: read-out: IZ
# Bacillus subtilis = assay: Antimicrobial activity against Bacillus subtilis assessed as inhibition zone at 200 ug/disk after 24 hrs by disc-diffusion method; assay type: functional; conditions: read-out: IZ
# Escherichia coli = assay: Antimicrobial activity against Escherichia coli assessed as inhibition zone at 200 ug/disk after 24 hrs by disc-diffusion method; assay type: functional; conditions: read-out: IZ
# Pseudomonas aeruginosa = assay: Antimicrobial activity against Pseudomonas aeruginosa assessed as inhibition zone at 200 ug/disk after 24 hrs by disc-diffusion method; assay type: functional; conditions: read-out: IZ
# Candida albicans = assay: Antimicrobial activity against Candida albicans assessed as inhibition zone at 200 ug/disk after 24 hrs by disc-diffusion method; assay type: functional; conditions: read-out: IZ
# CCRF-CEM = assay: Growth inhibition of human CCRF-CEM cells at 10 uM after 48 hrs; assay type: functional; conditions: read-out: GI
# HL-60(TB) = assay: Growth inhibition of human HL-60(TB) cells at 10 uM after 48 hrs; assay type: functional; conditions: HL-60, 48 h, read-out: GI
# K562 = assay: Growth inhibition of human K562 cells at 10 uM after 48 hrs; assay type: functional; conditions: K562, 48 h, read-out: GI
# [1] = Growth inhibition of human MOLT4 cells at 10 uM after 48 hrs; assay type: functional; conditions: MOLT-4, 48 h, read-out: GI
# [2] = Growth inhibition of human RPMI8226 cells at 10 uM after 48 hrs; assay type: functional; conditions: RPMI-8226, 48 h, read-out: GI
# A549 = assay: Growth inhibition of human A549 cells at 10 uM after 48 hrs; assay type: functional; conditions: A549, 48 h, read-out: GI
# [3] = Growth inhibition of human HOP92 cells at 10 uM after 48 hrs; assay type: functional; conditions: HOP-92, 48 h, read-out: GI
# NCI-H226 = assay: Growth inhibition of human NCI-H226 cells at 10 uM after 48 hrs; assay type: functional; conditions: NCI-H226, 48 h, read-out: GI
# NCI-H23 = assay: Growth inhibition of human NCI-H23 cells at 10 uM after 48 hrs; assay type: functional; conditions: NCI-H23, 48 h, read-out: GI
# NCI-H460 = assay: Growth inhibition of human NCI-H460 cells at 10 uM after 48 hrs; assay type: functional; conditions: NCI-H460, 48 h, read-out: GI
# NCI-H522 = assay: Growth inhibition of human NCI-H522 cells at 10 uM after 48 hrs; assay type: functional; conditions: NCI-H522, 48 h, read-out: GI
# [4] = Growth inhibition of human HCC2998 cells at 10 uM after 48 hrs; assay type: functional; conditions: HCC 2998, 48 h, read-out: GI
# [5] = Growth inhibition of human HCT116 cells at 10 uM after 48 hrs; assay type: functional; conditions: HCT-116, 48 h, read-out: GI
# [6] = Growth inhibition of human HCT15 cells at 10 uM after 48 hrs; assay type: functional; conditions: HCT-15, 48 h, read-out: GI
# HT-29 = assay: Growth inhibition of human HT-29 cells at 10 uM after 48 hrs; assay type: functional; conditions: HT-29, 48 h, read-out: GI
# KM12 = assay: Growth inhibition of human KM12 cells at 10 uM after 48 hrs; assay type: functional; conditions: KM12, 48 h, read-out: GI
# SW-620 = assay: Growth inhibition of human SW620 cells at 10 uM after 48 hrs; assay type: functional; conditions: SW-620, 48 h, read-out: GI
# [7] = Growth inhibition of human SF295 cells at 10 uM after 48 hrs; assay type: functional; conditions: SF-295, 48 h, read-out: GI
# SNB-19 = assay: Growth inhibition of human SNB19 cells at 10 uM after 48 hrs; assay type: functional; conditions: SNB-19, 48 h, read-out: GI
# U-251 = assay: Growth inhibition of human U251 cells at 10 uM after 48 hrs; assay type: functional; conditions: U-251, 48 h, read-out: GI
# [8] = Growth inhibition of human LOXIMVI cells at 10 uM after 48 hrs; assay type: functional; conditions: LOX IMVI, read-out: GI
# M14 = assay: Growth inhibition of human M14 cells at 10 uM after 48 hrs; assay type: functional; conditions: M14, 48 h, read-out: GI
# MDA-MB-435 = assay: Growth inhibition of human MDA-MB-435 cells at 10 uM after 48 hrs; assay type: functional; conditions: MDA-MB-435, 48 h, read-out: GI
# SK-MEL-5 = assay: Growth inhibition of human SK-MEL-5 cells at 10 uM after 48 hrs; assay type: functional; conditions: SK-MEL-5, 48 h, read-out: GI
# [9] = Growth inhibition of human UACC257 cells at 10 uM after 48 hrs; assay type: functional; conditions: UACC-257, 48 h, read-out: GI
# [10] = Growth inhibition of human UACC62 cells at 10 uM after 48 hrs; assay type: functional; conditions: UACC-62, 48 h, read-out: GI
# [11] = Growth inhibition of human OVCAR4 cells at 10 uM after 48 hrs; assay type: functional; conditions: OVCAR-4, 48 h, read-out: GI
# [12] = Growth inhibition of human OVCAR5 cells at 10 uM after 48 hrs; assay type: functional; conditions: OVCAR-5, 48 h, read-out: GI
# [13] = Growth inhibition of human OVCAR8 cells at 10 uM after 48 hrs; assay type: functional; conditions: OVCAR-8, 48 h, read-out: GI
# [14] = Growth inhibition of human NCI-ADR-RES cells at 10 uM after 48 hrs; assay type: functional; conditions: read-out: GI
# 786-0 = assay: Growth inhibition of human 786-0 cells at 10 uM after 48 hrs; assay type: functional; conditions: 786-0, 48 h, read-out: GI
# A498 = assay: Growth inhibition of human A498 cells at 10 uM after 48 hrs; assay type: functional; conditions: A498, 48 h, read-out: GI
# ACHN = assay: Growth inhibition of human ACHN cells at 10 uM after 48 hrs; assay type: functional; conditions: read-out: GI
# CAKI-1 = assay: Growth inhibition of human CAKI-1 cells at 10 uM after 48 hrs; assay type: functional; conditions: CAKI-1, 48 h, read-out: GI
# [15] = Growth inhibition of human RXF393 cells at 10 uM after 48 hrs; assay type: functional; conditions: RXF 393, 48 h, read-out: GI
# SN12C = assay: Growth inhibition of human SN12C cells at 10 uM after 48 hrs; assay type: functional; conditions: read-out: GI
# TK-10 = assay: Growth inhibition of human TK10 cells at 10 uM after 48 hrs; assay type: functional; conditions: TK-10, 48 h, read-out: GI
# [16] = Growth inhibition of human UO31 cells at 10 uM after 48 hrs; assay type: functional; conditions: UO-31, 48 h, read-out: GI
# [17] = Growth inhibition of human PC3 cells at 10 uM after 48 hrs; assay type: functional; conditions: PC-3, 48 h, read-out: GI
# MCF7 = assay: Growth inhibition of human MCF7 cells at 10 uM after 48 hrs; assay type: functional; conditions: MCF7, 48 h, read-out: GI
# MDA-MB-231 = assay: Growth inhibition of human MDA-MB-231 cells at 10 uM after 48 hrs; assay type: functional; conditions: MDA-MB-231, 48 h, read-out: GI
# [18] = Growth inhibition of human Hs 578T cells at 10 uM after 48 hrs; assay type: functional; conditions: read-out: GI
# [19] = Growth inhibition of human BT549 cells at 10 uM after 48 hrs; assay type: functional; conditions: BT-549, 48 h, read-out: GI
# T47D = assay: Growth inhibition of human T47D cells at 10 uM after 48 hrs; assay type: functional; conditions: read-out: GI
# MDA-MB-468 = assay: Growth inhibition of human MDA-MB-468 cells at 10 uM after 48 hrs; assay type: functional; conditions: MDA-MB-468, 48 h, read-out: GI
compound,measurement,setting,value
Cc1nc(N)sc1Sc1nc2ccc(Cl)cc2c(=O)n1-c1ccc(Oc2ccccc2)cc1,IC50,Dihydrofolate reductase,1 µM
same,zone of inhibition at 200 µg/disc,Staphylococcus aureus,8 mm
same,zone of inhibition at 200 µg/disc,Bacillus subtilis,8 mm
same,zone of inhibition at 200 µg/disc,Escherichia coli,8 mm
same,zone of inhibition at 200 µg/disc,Pseudomonas aeruginosa,8 mm
same,zone of inhibition at 200 µg/disc,Candida albicans,8 mm
same,inhibition of growth at 10 µM,CCRF-CEM,58.5%
same,inhibition of growth at 10 µM,HL-60(TB),40.6%
same,inhibition of growth at 10 µM,K562,25.7%
same,inhibition of growth at 10 µM,[1],55.7%
same,inhibition of growth at 10 µM,[2],32%
same,inhibition of growth at 10 µM,A549,29.8%
same,inhibition of growth at 10 µM,[3],25.6%
same,inhibition of growth at 10 µM,NCI-H226,13.6%
same,inhibition of growth at 10 µM,NCI-H23,26%
same,inhibition of growth at 10 µM,NCI-H460,18%
same,inhibition of growth at 10 µM,NCI-H522,14.7%
same,inhibition of growth at 10 µM,[4],26%
same,inhibition of growth at 10 µM,[5],66.7%
same,inhibition of growth at 10 µM,[6],44.6%
same,inhibition of growth at 10 µM,HT-29,44.1%
same,inhibition of growth at 10 µM,KM12,20.2%
same,inhibition of growth at 10 µM,SW-620,33.9%
same,inhibition of growth at 10 µM,[7],32.2%
same,inhibition of growth at 10 µM,SNB-19,30.7%
same,inhibition of growth at 10 µM,U-251,22.8%
same,inhibition of growth at 10 µM,[8],24.5%
same,inhibition of growth at 10 µM,M14,23.4%
same,inhibition of growth at 10 µM,MDA-MB-435,11.9%
same,inhibition of growth at 10 µM,SK-MEL-5,23.9%
same,inhibition of growth at 10 µM,[9],24.3%
same,inhibition of growth at 10 µM,[10],36.1%
same,inhibition of growth at 10 µM,[11],59.1%
same,inhibition of growth at 10 µM,[12],12.1%
same,inhibition of growth at 10 µM,[13],24.9%
same,inhibition of growth at 10 µM,[14],30.1%
same,inhibition of growth at 10 µM,786-0,31.5%
same,inhibition of growth at 10 µM,A498,60.2%
same,inhibition of growth at 10 µM,ACHN,21.5%
same,inhibition of growth at 10 µM,CAKI-1,26.5%
same,inhibition of growth at 10 µM,[15],13.4%
same,inhibition of growth at 10 µM,SN12C,26.1%
same,inhibition of growth at 10 µM,TK-10,11.1%
same,inhibition of growth at 10 µM,[16],38.3%
same,inhibition of growth at 10 µM,[17],51.1%
same,inhibition of growth at 10 µM,MCF7,12.6%
same,inhibition of growth at 10 µM,MDA-MB-231,10.7%
same,inhibition of growth at 10 µM,[18],18.1%
same,inhibition of growth at 10 µM,[19],36.8%
same,inhibition of growth at 10 µM,T47D,24.5%
same,inhibition of growth at 10 µM,MDA-MB-468,23.4%
